Data on three molecules can be found in patent US6030841A, “Liver function test” (Norgine Limited, priority 1997, dated 2000).

A short description of data set [1]: Plasma elimination of CLF after intravenous injection in healthy volunteers (and patients). Format: in vivo, human. How it is done: A study was carried out in six healthy volunteers (1 female, 5 male), ages 30-53 years. Subjects were studied supine after overnight fasting. After an initial basal blood sample was taken, CLF in a dose of 0.02 mg/kg of body weight (b.w.) in physiological saline was injected intravenously during 15 seconds. Venous blood samples were collected from the opposite antecubital vein into gel and lithium heparin containers (sold under the Trade Name Vacutainers by Becton Dickinson Vacutainer Systems) at 2, 3, 4, 6, 10, 15, 20, 30, 60 and 90 minutes. The blood samples were then centrifuged and 0.5 ml aliquots of plasma were taken and added to 3.5 ml of methanol to precipitate plasma proteins, followed by further centrifugation. The supernatant (1 ml) was diluted to 3 ml with methanol and the fluorescence was then measured by spectrometer (Perkin Elmer LS5B Luminescence Spectrometer).
CLF concentration (μg/ml) was derived from a calibration curve which expressed the equation: […]
where y represents the measured fluorescence in fluorescence units at an excitation wavelength of 490 nm with emission at 520 nm and x represents the CLF concentration in μg/ml. The calibration curve was calibrated from fluorescence meaurements of solutions having known CLF concentrations followed by linear regression analysis.
Non linear plasma elimination curves presented as percentage dose administered per liter of plasma were fitted to a tri-exponential model. The half life (t1/2 time) was calculated for the first (t1/2 1st phase), second (t1/2 2nd phase) and third (t1/2 3rd phase) phases of the elimination curves from the equations: […]
where k1, k2 and k3 were calculated for each subject using the equation:
Ct =Ae^-k.sbsp.1^t +Be^-k.sbsp.2^t
Ct is the concentration of CLF at time t, A, B and C are the intercepts of each phase of elimination at t=0 k1, k2 and k3 are fractional disappearance rates of the three phases of elimination.

The nature of data set [2]: Standard liver function tests, electrolytes and kidney function before and after 0.5 mg/kg b.w. CLF. Format: in vivo, human. How it is done:
In five healthy volunteers, a 25-fold higher dose of CLF (0.5 mg/kg b.w.) was injected in order to further assess the appropriateness of the dose chosen and the safety of the compound. […] Table.
Tests of Liver Function Before And After CLF Dose of
0.5 mg/Kg b.w. For 5 Healthy Patients.

For data set [3] the following is noted: Horak et al., cited from earlier work.
For data set [4] the following is noted: radiolabelled, bi-exponential model, Cowen et al.; cited from earlier work.
The mark [5] stands for this setting: CLF 0.02 mg/kg b.w. i.v., healthy volunteers, plasma, tri-exponential model.
Setting [6] is: after CLF 0.5 mg/kg b.w., only one value given.

Where two headings read alike, the source gives them in different places.

As to `CC(CCC(=O)NC(CCCCNC(=S)Nc1ccc(-c2c3ccc(=O)cc-3oc3cc(O)ccc23)c(C(=O)O)c1)C(=O)O)C1CCC2C3C(O)CC4CC(O)CCC4(C)C3CC(O)C12C` (stereo not shown) [CLF, cholyl-lysyl-fluorescein], the “efficiency of hepatic clearance (elimination curves at 25-fold increased dose)” value in data set [1] (0.5 mg/kg b.w. i.v. versus 0.02 mg/kg, healthy volunteers) is listed as “efficiency of hepatic clearance is unchanged”. Besides, the “percentage of fluorescence after 60 min (fluorescence at 60 min compared with 10 min)” value in data set [1] (60 min vs 10 min, plasma, healthy volunteers) came out at 13.1±1.6%. For the same molecule, the “Plasma retention at 90 minutes, percentage of the dose administered per liter of plasma” value in data set [1] (90 minutes, i.v., healthy volunteers) was found to be 2.2%. Besides, in data set [1] (setting [5]), the “t1/2 1st phase of elimination” value amounted to 1.7 ± 0.9 min, the “t1/2 2nd phase of elimination” value was 6.7 ± 1.6 min and the “t1/2 3rd phase of elimination” value came out at 68 ± 17 min. Also, the “CLF plasma elimination compared with natural bile acids” value in data set [1] (body of data, comparison with natural bile acids) is recorded as “very similar to the elimination of natural bile acids”. In data set [1] (calculated as proposed by Thiordleifsson et al., 0.02 mg/kg), the volume of distribution was 2214 ± 147 mL. Besides, the “CLF elimination curves of FIG. 2” value in data set [1] (healthy patients versus patients with fatty, cirrhotic and recently transplanted livers (5 days post operation)) is reported as “differing rates of CLF elimination”. The “Serum biochemistry including basic liver function tests, electrolytes and kidney function” value in data set [2] (0.5 mg/kg b.w. i.v., five healthy volunteers) is on record as “did not change significantly”. Further, the “plasma alkaline phosphatase levels post injection” value in data set [2] (0.5 mg/kg b.w. i.v., healthy volunteers, not statistically significant) is “consistent diminution”. For the same molecule, the “bilirubin after CLF injection” value in data set [2] (after CLF 0.5 mg/kg b.w., before: 10) is reported as 11 μM/L. Besides, in data set [2] (after CLF 0.5 mg/kg b.w., before: 17), the “AST (aspartate aminotransferase) after CLF injection” value stood at 16 U/L. Moreover, the “Creatinine after CLF injection” value in data set [2] (after CLF 0.5 mg/kg b.w., before: 94) came out at 89 μM/L. The “AlkP (alkaline phosphatase) after CLF injection” value in data set [2] (after CLF 0.5 mg/kg b.w., before: 148) is on record as 134 U/L. Further, in data set [2] (setting [6]), the “Albumin after CLF injection” value worked out at 42 g/L and the “Urea after CLF injection” value worked out at 4.3 mM/L.
As to `C[C@H](CCC(=O)O)[C@H]1CC[C@H]2[C@@H]3[C@H](O)C[C@@H]4C[C@H](O)CC[C@]4(C)[C@H]3C[C@H](O)[C@]12C` [cholic acid], the “60 min plasma retention” value was 60% in data set [3] (FHF patients who survived); 8±1% in data set [3] (healthy volunteers, 60 min compared with 10 min); 71% in data set [3] (patients with fulminant hepatic failure (FHF) who subsequently died).
`C[C@H](CCC(=O)NCC(=O)O)[C@H]1CC[C@H]2[C@@H]3[C@H](O)C[C@@H]4C[C@H](O)CC[C@]4(C)[C@H]3C[C@H](O)[C@]12C` [cholyl glycine]: in data set [4], the t1/2 first exponential is 1.7 ± 0.1 min and the t1/2 second exponential is 7 ± 0.1 min.
